Results from article PMC9038204, “SNX27–Retromer directly binds ESCPE-1 to transfer cargo proteins during endosomal recycling” (PLoS Biology, 2022).
Where no end group is shown, it is not given here.

What was measured:
[1] = test system: HeLa cells, surface GLUT1; experiment: Surface biotinylation, cell surface level of GLUT1; type: cell-based
Experimental: (§1) For western blotting, cells were lysed in PBS with 1% (v/v) Triton X-100 and protease inhibitor cocktail. The protein concentration was determined with a BCA assay kit (Thermo Fisher Scientific, USA), and equal amounts were resolved on NuPAGE 4% to 12% precast gels (Invitrogen, USA). Blotting was performed onto polyvinylidene fluoride membranes (Immobilon-FL; EMD Millipore, USA) followed by detection using the Odyssey infrared scanning system (LI-COR Biosciences, USA). For GFP-based immunoprecipitations, HEK-293T cells were lysed 48 hours after transfection in immunoprecipitation buffer (50 mM Tris-HCl, 0.5% (v/v) NP-40, and Roche protease inhibitor cocktail) and subjected to GFP trap (ChromoTek, Germany). Immunoblotting was performed using standard procedures. Detection was performed on an Odyssey infrared scanning system (LI-COR Biosciences) using fluorescently labeled secondary antibodies. In using the Odyssey, we routinely performed western blot analysis where a single blot is simultaneously probed with antibodies against 2 proteins of interest (distinct antibody species) followed by visualization with the corresponding secondary antibodies conjugated to distinct spectral dyes.
(§2) For surface biotinylation experiments, fresh Sulfo-NHS-SS Biotin (Thermo Fisher Scientific, #21217) was dissolved in ice-cold PBS at pH 7.8 at a final concentration of 0.2 mg/ml. Cells were washed twice in ice-cold PBS and placed on ice to slow down the endocytic pathway. Next, cells were incubated with the biotinylation reagent for 30 minutes at 4°C followed by incubation in TBS for 10 minutes to quench the unbound biotin. The cells were then lysed in lysis buffer and subjected to Streptavidin beads-based affinity isolation (GE Healthcare, USA).

[2] = test system: HeLa cells, surface ITGA5; experiment: Surface biotinylation, cell surface level of ITGA5; type: cell-based
Experimental: as §1, §2

[3] = molecular target: T1, hSNX27FL K495D (Homo sapiens, UniProt Q96L92, K495D); experiment: ITC, hSNX1 peptide 75-92 against hSNX27FL K495D; type: binding; details: 25°C, 600 μM SNX1_75-92 into 20 μM hSNX27FL K495D
T1 construct: FL, full-length; ITC, isothermal titration calorimetry; His-tag followed by a TEV cleavage site (N); made in house; host or cells: E. coli BL21 (DE3)
Excerpt: (§3) For bacterial expression, full-length mouse SNX1 with an amino-terminal His-tag (mSNX1FL hereafter) was cloned into the pMW172Kan vector [75], and the truncated mSNX1 construct containing residues 1 to 139 was cloned into pGEX4T-2 vector for expression as a thrombin-cleavable amino-terminal GST fusion protein. DNA encoding full-length mouse SNX27 (mSNX27FL hereafter) was inserted into the pMCSG7 vector [76] by the ligation-independent cloning (LIC) approach. Human SNX27 constructs, hSNX27FL, hSNX27FERM, and hSNX27FL single-site mutants R437D, K495D, K496D, R498D, and K501D were cloned into the pET-28a vector by GenScript and codon optimized for bacterial protein expression. An additional TEV cleavage site was inserted between the amino-terminal His-tag and hSNX27 coding sequences.
(§4) All microcalorimetry experiments were conducted at 25°C using a PEAQ ITC (Malvern, UK) in 50 mM HEPES (pH 7.5), 200 mM NaCl, 5% glycerol, and 1 mM β-ME (ITC buffer). […]
(§5) The ITC experiments were conducted with 1 injection of 0.4 μL followed by a series of 12 injections of 3.2 μL each with 180-second intervals and a stirring speed of 850 rpm. […] Data were analyzed with Malvern software package by fitting and normalized data to a single-site binding model, yielding the thermodynamic parameters Kd, ΔH, ΔG, and −TΔS for all binding experiments. […]

[4] = molecular target: T2, hSNX27FL R498D (Homo sapiens, UniProt Q96L92, R498D); experiment: ITC, hSNX1 peptide 75-92 against hSNX27FL R498D; type: binding; details: 25°C, 600 μM SNX1_75-92 into 20 μM hSNX27FL R498D
T2 construct: FL, full-length; ITC, isothermal titration calorimetry; His-tag followed by a TEV cleavage site (N); made in house; host or cells: E. coli BL21 (DE3)
Excerpt: as §3, §4, §5

[5] = molecular target: T3, hSNX27FL K501D (Homo sapiens, UniProt Q96L92, K501D); experiment: ITC, hSNX1 peptide 75-92 against hSNX27FL K501D; type: binding; details: 25°C, 600 μM SNX1_75-92 into 20 μM hSNX27FL K501D
T3 construct: FL, full-length; ITC, isothermal titration calorimetry; His-tag followed by a TEV cleavage site (N); made in house; host or cells: E. coli BL21 (DE3)
Excerpt: as §3, §4, §5

[6] = molecular target: T4, mSNX27FL preincubated with competing peptide (Mus musculus, UniProt Q3UHD6); experiment: Competitive ITC of hSNX2 16-33 and hSNX1 75-92 with mSNX27FL; type: binding; details: 25°C
T4 construct: DNA encoding full-length mouse SNX27 (mSNX27FL hereafter) was inserted into the pMCSG7 vector; made in house; host or cells: Escherichia coli BL21 CodonPlus (DE3)
Experimental: All microcalorimetry experiments were conducted at 25°C using a PEAQ ITC (Malvern, UK) in 50 mM HEPES (pH 7.5), 200 mM NaCl, 5% glycerol, and 1 mM β-ME (ITC buffer). All proteins were purified by SEC using the same buffer prior to ITC experiments to avoid buffer mismatches. To measure binding of SNX27 to SNX1 proteins, 800 μM of hSNX27FERM was titrated into 20 μM of GST-mSNX1_1-139 or His-SNX1FL. For the binding of SNX1 and SNX2 peptides to SNX27, peptides were diluted 10-fold to 800 μM in ITC buffer peptides and titrated into 20 μM SNX27FL proteins containing the same 1:10 ratio of peptide buffer (100 mM Tris-HCl, pH 10.6). […] For ITC experiment using SNX1_75-92 against hSNX27 wild-type and single-site mutants, 600 μM SNX1_75-92 peptide was titrated into 20 μM hSNX27 proteins.
The ITC experiments were conducted with 1 injection of 0.4 μL followed by a series of 12 injections of 3.2 μL each with 180-second intervals and a stirring speed of 850 rpm. The heat exchange of interactions was obtained through integrating the observed peaks and background correction by subtracting the heats of dilution. Data were analyzed with Malvern software package by fitting and normalized data to a single-site binding model, yielding the thermodynamic parameters Kd, ΔH, ΔG, and −TΔS for all binding experiments. […]

[7] = relative to HeLa = 100, mean of n = 3, Fig. 6D
[8] = relative to HeLa = 100, replicate n1, Fig. 6D
[9] = relative to HeLa = 100, replicate n2, Fig. 6D
[10] = relative to HeLa = 100, replicate n3, Fig. 6D

+GFP-SNX1
cell surface GLUT1, Mean 2 [1, 7]: 89.92 | cell surface GLUT1 [1, 8]: 81.0353 | cell surface GLUT1 [1, 9]: 95.6847 | cell surface GLUT1 [1, 10]: 93.0328 | cell surface ITGa5, Mean 2 [2, 7]: 94.91 | cell surface ITGa5 [2, 8]: 92.6175 | cell surface ITGa5 [2, 9]: 101.027 | cell surface ITGa5 [2, 10]: 91.0806

NGIHEEQDQEPQDLFADA [SNX1_75-92]
Kd [3]: no detectable binding | Kd ([3]; listed as hSNX175-92): No binding detected | Kd [4]: no detectable binding | Kd ([4]; listed as hSNX175-92): No binding detected | Kd [5]: no detectable binding | Kd ([5]; listed as hSNX175-92): No binding detected

TDFEDLEDGEDLFTSTVS [SNX2_16-33]
Kd ([6]; hSNX2 16-33 titrated into mSNX27FL preincubated with 2-fold molar excess hSNX1 75-92): binding is blocked | Kd ([6]; hSNX2 16-33 titrated into mSNX27FL preincubated with 2-fold molar excess hSNX1 75-92, listed as hSNX216-33): No binding detected
